Experimental data as given in patent US10906876B2, “Tetrahydroisoquinolines as selective NADPH oxidase 2 inhibitors” (University of Pittsburgh—Of the Commonwealth System of …, priority 2013, dated 2021).

Tests used:
Nox1 = molecular target: T1, Nox1 (Homo sapiens, UniProt Q9Y5S8); assay: Constitutive Nox1 activity in transiently transfected COS-Nox1/NOXO1/NOXA1 cells, L-012 assay; type: cell-based; conditions: for Nox1 inhibitory activity: Table 2; for IC50: constitutive activity, transiently transfected Cos-Nox1 cells, L-012, read-out: IC50 of ROS generation, Nox1 (L-012 assay)
T1 construct: Plasmids encoding full-length human cDNAs for Nox1 (pcDNA3.1-hNox1); expressed in transfected cells; host or cells: COS-22 (COS-7 stably expressing human p22phox), transient co-transfection
T1 sequence (Q9Y5S8 1-564): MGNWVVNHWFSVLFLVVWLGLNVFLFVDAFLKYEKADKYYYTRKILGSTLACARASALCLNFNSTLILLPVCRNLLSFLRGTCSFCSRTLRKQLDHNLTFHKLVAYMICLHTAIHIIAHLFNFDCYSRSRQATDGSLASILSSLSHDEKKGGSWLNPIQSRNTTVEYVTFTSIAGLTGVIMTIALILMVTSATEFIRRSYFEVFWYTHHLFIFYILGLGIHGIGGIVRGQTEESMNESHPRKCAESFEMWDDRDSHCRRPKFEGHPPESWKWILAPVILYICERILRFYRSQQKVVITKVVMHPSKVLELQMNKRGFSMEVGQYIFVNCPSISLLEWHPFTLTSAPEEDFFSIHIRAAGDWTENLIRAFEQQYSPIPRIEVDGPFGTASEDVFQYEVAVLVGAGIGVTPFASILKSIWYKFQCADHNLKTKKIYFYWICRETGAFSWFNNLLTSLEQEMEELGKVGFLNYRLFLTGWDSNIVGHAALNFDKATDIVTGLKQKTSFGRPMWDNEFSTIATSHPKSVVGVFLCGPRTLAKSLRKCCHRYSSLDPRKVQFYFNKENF
T1 sequence (P13498 2-195 partner limits assumed): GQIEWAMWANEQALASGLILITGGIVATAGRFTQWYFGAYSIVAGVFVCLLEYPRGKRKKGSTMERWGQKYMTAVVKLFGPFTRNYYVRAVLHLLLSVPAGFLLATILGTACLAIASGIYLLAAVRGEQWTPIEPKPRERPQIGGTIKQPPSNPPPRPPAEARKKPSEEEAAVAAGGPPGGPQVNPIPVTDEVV
Excerpt: Plasmids encoding full-length human cDNAs for Nox1 (pcDNA3.1-hNox1), NOXO1 (pcDNA3.1-hNOXO1), NOXA1 (pCMVsport 6-hNOXA1), p47phox (pCMV-Tag4A-hp47) and Nox4 (pcDNA3-hNox4) were kindly provided by Dr. David Lambeth (Emory University, Ga.). Plasmids encoding Nox1, NOXO1, or NOXA1 were transformed and amplified into Escherichia coli strain TOP10 (Invitrogen, Carlsbad, Calif.). Plasmids were purified using a QIAfilter plasmid purification kit (QIAGEN Inc., Valencia, Calif.). For human Nox4 expression, the BglII/NotI restriction fragment from the pcDNA3-hNox4 was subcloned into the plasmid pcDNA3.1/Hygro(−) (Invitrogen, Carlsbad, Calif.) to generate pcDNA3.1/Hygro-hNox4. The fragment sequence, in-frame insertion and orientation were validated by DNA sequencing after PCR amplification. pcDNA3.1/Hygro-hNox4 was amplified into Escherichia coli strain TOP10 and purified with a QIAfilter plasmid purification kit.
Cell transfection was carried out using Lipofectamine LTX and Plus reagent (Invitrogen, Carlsbad, Calif., USA), according to the manufacturer's instructions. COS-22 cells were transiently co-transfected with pcDNA 3.1-hNox1, pCMVsport 6-hNOXA1 and pcDNA3.1-hNoxO1 (COS-Nox1/NOXO1/NOXA1 cells) or with pcDNA3.1/Hygro-hNox4 (COS-Nox4 cells). Cells were used 24 hr after transfection. Adherent cells were harvested by incubating with 0.05% trypsin/EDTA for 5 min at 37° C. Following addition of DMEM/10% FBS to neutralize the trypsin, the cells were pelleted by centrifugation at 1100×g for 5 min at 4° C. and used for the experiments.
COS-Nox2, COS-Nox1/NOXO1/NOXA1, HEK-Nox5 and COS-22 cells were re-plated in OPTIMEM into 384-well white micro-plates (Greiner-Bio One GmbH, Germany) at a density of 2.5×10^3 cells/well for COS-Nox2 and 5×10^4 cells/well for all others. The cells were incubated at 37° C. in PBS containing […] L-012 for 10 min. Reaction was initiated by addition of 5 μM PMA in the case of Nox2 or 1 μM PMA/0.1 μM Ionomycin in the case of Nox5. Since Nox1 was constitutively active, Nox1-derived O2^•− was assessed by comparison to non-transfected cells (Cos22). Luminescence was quantified over time using a Biotek Synergy 4 Hybrid Multi-Mode Microplate Reader. The specificity of L-012 for O2^•− was confirmed by the addition of SOD (150 U/mL).
All data are expressed as means±SEM. IC50 values were determined using the GraphPad Prism software (GraphPad Software, San Diego, Calif.) for non-linear regression three-parameters, with constrain values of 100 and 0 for top and bottom, respectively, and assumes a Hill slope of 1.

cells = assay: Cytotoxicity assay (CytoTox-Glo); type: cell-based; conditions: highest concentration tested (25 and 50 μM tested, FIG. 5)
Method: The cytotoxic effect of compounds was tested using CytoTox-Glo kit (Promega, Madison, Wis.). This assay uses a luminogenic peptide substrate, the AAF-Glo™ Substrate, to measure dead-cell protease activity, which is released from cells that have lost membrane integrity. Cells were plated in 384-well plate at 2.5×10^3 cells/well in OPTIMEM, incubated for 15 min with the compounds at various concentrations and then carried out dead cell measurements according to manufacturer protocol. […] signals before and after the addition of digitonin were used to calculate the % of dead cells in each independent well.
Another undesirable side effect would be the reduction of ROS production in the assays due to cell death rather than an inhibition of Nox2. To verify that this was not the case for these tetrahydroisoquinolines, the effect of various concentrations of the compounds on cell viability was determined using a commercially available CytoTox-Glo assay (Promega). This assay measures the concentration of proteases released from cells that have lost membrane integrity (i.e., dead cells). Data are expressed as % of live cells in each independent well (=100−% dead cells).

| IC50 (Nox1) | SMILES | Nox1 inhibitory activity (Nox1) | Effect on cell viability (cells) |
| --- | --- | --- | --- |
| > 100 µM | C=C(C)CC1NC2CC(C)(C)C1c1c(-c3ccc(Cl)c(Cl)c3)cccc12 (racemic) [Compound 12a, (±)-(1S,4R,9S)-5-(3,4-Dichlorophenyl)-3,3-dimethyl-9-(2-methylallyl)-1,2,3,4-tetrahydro-1,4-(epiminomethano)naphthalene] |  |  |
| > 100 µM | C=C(C)CC1C2c3c(-c4ccc(Cl)c(Cl)c4)cccc3C(CC2(C)C)N1Cc1ccc2c(c1)OCO2 (racemic) [Compound 12b, (±)-(1S,4R,9S)-10-(Benzo[d][1,3]dioxol-5-ylmethyl)-5-(3,4-dichlorophenyl)-3,3-dimethyl-9-(2-methylallyl)-1,2,3,4-tetrahydro-1,4-(epiminomethano)-naphthalene] |  |  |
| > 100 µM | C=C(C)CC1C2c3c(-c4ccc(Cl)c(Cl)c4)cccc3C(CC2(C)C)N1CCCCC (racemic) [Compound 12c] |  |  |
| > 100 µM | C=C(C)CC1C2c3c(Br)cccc3C(CC2(C)C)N1S(C)(=O)=O (racemic) [Compound 14a, (±)-(1S,4R,9S)-5-Bromo-3,3-dimethyl-9-(2-methylallyl)-10-(methylsulfonyl)-1,2,3,4-tetrahydro-1,4-(epiminomethano)naphthalene] |  |  |
| > 100 µM | C=C(C)CC1C2c3c(Br)cccc3C(CC2(C)C)N1S(=O)(=O)c1ccc(F)cc1 (racemic) [Compound 14b, (±)-(1S,4R,9S)-5-Bromo-10-((4-fluorophenyl)sulfonyl)-3,3-dimethyl-9-(2-methylallyl)-1,2,3,4-tetrahydro-1,4-(epiminomethano)naphthalene] |  |  |

Continued, compound first:

| SMILES | IC50 (Nox1) | Nox1 inhibitory activity (Nox1) | Effect on cell viability (cells) |
| --- | --- | --- | --- |
| C=C(C)CC1NC2CC(C)(C)C1c1c(Br)cccc12 (racemic) [Compound 7, (±)-(1S,4R,9S)-5-Bromo-3,3-dimethyl-9-(2-methylallyl)-1,2,3,4-tetrahydro-1,4-(epimino-methano)-naphthalene] | 31 ± 0.7 µM | active | had any effect on cell viability |
| C=C(C)CC1NC2CC(C)(C)C1c1ccccc12 (racemic) [Compound 8, (±)-(1S,4R,9S)-3,3-Dimethyl-9-(2-methylallyl)-1,2,3,4-tetrahydro-1,4-(epiminomethano)-naphthalene] | > 100 µM | inactive |  |
| C=C(C)CC1C2c3ccccc3C(CC2(C)C)N1Cc1cccc(F)c1 (racemic) [Compound 11a, (±)-(1S,4R,9S)-10-(3-Fluorobenzyl)-3,3-dimethyl-9-(2-methylallyl)-1,2,3,4-tetrahydro-1,4-(epiminomethano)naphthalene] | > 100 µM |  |  |
| C=C(C)CC1C2c3c(Br)cccc3C(CC2(C)C)N1Cc1ccnc2ccccc12 (racemic) [Compound 11b, (±)-(1S,4R,9S)-5-Bromo-3,3-dimethyl-9-(2-methylallyl)-10-(quinolin-4-ylmethyl)-1,2,3,4-tetra-hydro-1,4-(epiminomethano)naphthalene] | > 100 µM |  |  |
| C=C(C)CC1C2c3c(Br)cccc3C(CC2(C)C)N1Cc1c[nH]c2ccccc12 (racemic) [Compound 11c, (±)-(1S,4R,9S)-10-((1H-Indol-3-yl)methyl)-5-bromo-3,3-dimethyl-9-(2-methylallyl)-1,2,3,4-tetrahydro-1,4-(epiminomethano)naphthalene] | > 100 µM |  |  |
| C=C(C)CC1C2c3c(Br)cccc3C(CC2(C)C)N1Cc1ccc2c(c1)OCO2 (racemic) [Compound 11d, (±)-(1S,4R,9S)-10-(Benzo[d][1,3]dioxol-5-ylmethyl)-5-bromo-3,3-dimethyl-9-(2-methylallyl)-1,2,3,4-tetrahydro-1,4-(epiminomethano)naphthalene] | > 100 µM |  |  |
| C=C(C)CC1C2c3c(Br)cccc3C(CC2(C)C)N1Cc1cc(C)on1 (racemic) [Compound 11e, (±)-3-(1S,4R,9S)-5-Bromo-3,3-dimethyl-9-(2-methylallyl)-1,2,3,4-tetrahydro-1,4-(epimino-methano) naphthalen-10-yl)methyl)-5-methylisoxazole] | > 100 µM |  |  |
| C=C(C)CC1C2c3c(Br)cccc3C(CC2(C)C)N1Cc1cccc(F)c1 (racemic) [Compound 11f, (±)-(1S,4R,9S)-5-Bromo-10-(3-fluorobenzyl)-3,3-dimethyl-9-(2-methylallyl)-1,2,3,4-tetrahydro-1,4-(epiminomethano)naphthalene] | > 100 µM |  |  |
| C=C(C)CC1C2c3c(Br)cccc3C(CC2(C)C)N1CCCCC (racemic) [Compound 11g, (±)-(1S,4R,9S)-5-Bromo-3,3-dimethyl-9-(2-methylallyl-10-pentyl-1,2,3,4-tetrahydro-1,4-(epiminomethano)naphthalene] | > 100 µM | virtually no effect |  |
| C=C(C)CC1C2c3c(Br)cccc3C(CC2(C)C)N1Cc1cccs1 (racemic) [Compound 11h, (±)-(1S,4R,9S)-5-Bromo-3,3-dimethyl-9-(2-methylallyl)-10-(thiophen-2-ylmethyl)-1,2,3,4-tetrahydro-1,4-(epiminomethano)naphthalene] | > 100 µM | virtually no effect |  |
| CC(C)CC1NC2CC(C)(C)C1c1c(Br)cccc12 (racemic) [Compound 13] | 32 ± 18 µM | retained inhibitory activity | had any effect on cell viability |
| C=C(C)C[C@@H]1N[C@H]2CC(C)(C)[C@@H]1c1c(Br)ccc(Br)c12 [Compound 9] | 60 ± 36 µM | active | had any effect on cell viability |
